Assay results: patent US20050239872A1, “1,5-distributed pyrrolid-2-one derivatives for use as ep4 receptor agonists in the teatment of eye diseases such as glaucoma” (priority 2002, published 2005)

Legend:
[1] = test system: more than 80 receptors and enzymes; assay: PanLab screening against more than 80 receptors and enzymes; details: concentrations greater than 10 μM
[2] = Oral pharmacokinetics in rats; type: in vivo

For `O=C1CC[C@H](/C=C/C(O)C(F)(F)c2ccccc2)N1CCCCCCc1nnn[nH]1` (stereo partly drawn) [Compound 7, (5R)-5[(1E)-4,4-difluoro-3-hydroxy-4-phenylbut-1-enyl]-1-[6-(1H-tetraazol-5-yl)hexyl]pyrrolidin-2-one], the “activity in PanLab screening” value [1] was “no significant activities”, the “terminal elimination half life” value [2] was “good” and the oral bioavailability ([2]; oral) was “good”.
